Measurements from patent US5543517A, “Substituted bicyclic phosphoramides and derivatives thereof” (The DuPont Merck Pharmaceutical Company, priority 1994, dated 1996).
In brackets after ≈: the same amount, converted by molar mass. Where two headings read alike, the source gives them in different places.

Columns and labels:
HIV-1 (RF) = test: HIV RNA assay (microplate based compound evaluation in HIV-1 infected MT-2 cells); format: cell-based
Protocol: DNA Plasmids and In Vitro RNA Transcripts
Plasmid pDAB 72 containing both gag and pol sequences of BH10 (bp 113-1816) cloned into PTZ 19R was prepared according to Erickson-Viitanen et al. AIDS Research and Human Retroviruses 1989, 5, 577. The plasmid was linearized with Bam HI prior to the generation of in vitro RNA transcripts using the Riboprobe Gemini system II kit (Promega) with T7 RNA polymerase. Synthesized RNA was purified by treatment with RNase free DNAse (Promega), phenol-chloroform extraction, and ethanol precipitation. RNA transcripts were dissolved in water, and stored at -70° C. The concentration of RNA was determined from the A260.
Biotinylated capture probes were purified by HPLC after synthesis on an Applied Biosystems (Foster City, Calif.) DNA synthesizer by addition of biotin to the 5' terminal end of the oligonucleotide, using the biotinphosphoramidite reagent of Cocuzza, Tet. Lett. 1989, 30, 6287. The gag biotinylated capture probe (5-biotin-[…] 3') was complementary to nucleotides 889-912 of HXB2 and the pol biotinylated capture probe (5'-biotin --[…] 3') was complementary to nucleotides 2374-2395 of HXB2. Alkaline phosphatase conjugated oligonucleotides used as reporter probes were prepared by Syngene (San Diego, Calif.). The pol reporter probe (5' […] 3') was complementary to nucleotides 2403-2425 of HXB2. The gag reporter probe (5' […] 3') was complementary to nucleotides 950-973 of HXB2. All nucleotide positions are those of the GenBank Genetic Sequence Data Bank as accessed through the Genetics Computer Group Sequence Analysis Software Package (Devereau Nucleic Acids Research 1984, 12, 387). The reporter probes were prepared as 0.5 μM stocks in 2×SSC(0.3M NaCl, 0.03M sodium citrate), 0.05M Tris pH 8.8, 1 mg/mL BSA. The biotinylated capture probes were prepared as 100 μM stocks in water.
Streptavidin Coated Plates
Nunc-immunomodule microtiter plate strips were coated by addition of 200 μL of streptavidin (30 μg/mL, Scripps, La Jolla, Calif.) in freshly prepared 10 mM sodium carbonate (pH 9.6). Plates were incubated overnight at 4° C. Streptavidin solution was aspirated from the wells and a blocking buffer composed of phosphate buffered saline (PBS), 20 mg/mL bovine serum albumin (crystalline, nuclease and protease free, Calbiochem) and 100 mg/mL lactose (Sigma) was added to the plates for 3 hrs at room temperature. Blocking buffer was removed from the wells, which were allowed to dry overnight at room temperature and subsequently stored at 4° C. in zip lock bags with desiccant. For the majority of the compound evaluation experiments, streptavidin coated plates were obtained from Du Pont Biotechnology Systems (Boston, Mass.).
MT-2, CEM, and H9 cells were maintained in RPMI 1640 supplemented with 5% fetal calf serum (FCS), 2 mM L-glutamine and 50 μg/mL gentamycin, all from Gibco. Laboratory strains of HIV-1 (RF, MN and IIIB) were propagated in H9 cells in the same medium. Virus stocks were prepared approximately 1 month after acute infection of H9 cells by clarification of the tissue culture medium and storage of aliquots at -70° C. Infectious titers of HIV-1 (RF) stocks were 1-3×10^7 PFU (plaque forming units)/mL as measured by plaque assay on MT-2 cells (see below). Each aliquot of virus stock used for infection was thawed only once. In some cases, infected H9 cells were shifted to Dulbecco's modified Eagle's medium 3-10 days before collection of virus in order to generate virus stocks in medium with low biotin content. Clinical isolates of HIV that had been passaged once in MT-2 cells were used to infect fresh MT-2 cells in RPMI medium. Three days after infection, cells were pelleted, resuspended and culture continued in Dulbecco's modified Eagle's medium as above. Virus stocks of clinical isolates were prepared 10-15 days after infection when cytopathic effects were apparent in the culture. […]

HIV-1 protease = target: T1, HIV-1 protease (HIV-1 M:B_HXB2R, UniProt P04585); test: HIV protease inhibition assay (HPLC method); format: biochemical; conditions: pH 5.5, 30° C., 1 hr
T1 construct: cut from Gag-Pol polyprotein
Protocol: The Ki values in TABLE 1 were determined using the assay conditions described below under HIV Protease Inhibition Assay (HPLC Method). The Ki values are indicated as follows: +++=<10 nM; ++=10 nM to 1 μM; +=>[…].
HIV PROTEASE INHIBITION ASSAY (HPLC METHOD)
Protease: Inclusion bodies of E. coli harboring plasmid T1718R with a synthetic gene coding for a single-chain tethered dimer of HIV protease were prepared as described in Cheng et al. Proc. Natl. Acad. Sci. USA 1990, 87, 9660. Active protease was prepared as described therein by extraction with 67% acetic acid, dilution 33-fold with water, dialysis against water and then against a "refolding buffer" comprising 20 mM MES, 1 mM dithiothreitol and 10% glycerol, pH 5.5. Protease was stored as a stock preparation at 10 uM in refolding buffer.
Substrate: Peptide of the sequence aminobenzoyl-Ala-Thr-His-Gln-Val-Tyr-Phe(NO2)-Val-Arg-Lys-Ala containing p-nitrophenylalanine (Phe(NO2)), was prepared by solid phase synthesis as previously described (Cheng et al. Proc. Natl. Acad. Sci. USA 1990, 87, 9660). Stock solutions of 2 mM substrate were prepared in DMSO.
Inhibitory compounds were dissolved in sufficient DMSO to make 3 mM stock solutions. All further dilutions were prepared in "assay buffer" comprising 1M NaCl, 50 mM MES, pH 5.5, 1 mM EDTA, 1 mM DTT and 20% glycerol.
Enzyme reaction: To a 2 mL screw-cap centrifuge tube were added 50 uL protease (final concentration 0.25 nM) and 0.1 mL inhibitor compound (final concentration 0.1-12,500 nM). After 15 min preincubation at room temperature, the reaction was started by the addition of 0.05 mL substrate (final concentration 5 uM). Incubation was carried out at 30° C. for 1 hr. The reaction was stopped by addition of 1 mL of 0.1M ammonium hydroxide solution.
HPLC measurement of product formation: The product (aminobenzoyl-Ala-Thr-His-Gln-Val-Tyr) was separated from substrate on a Pharmacia MonoQ anion exchange column. The injection volume was 0.2 mL. The mobile phases comprised: solution A (20 mM tris HCl, pH 9.0, 0.02% sodium azide, 10% acetonitrile), and solution B (20 mM tris HCl, pH 9.0, 0.02% sodium azide, 0.5M ammonium formate, 10% acetonitrile). The mobile phases were pumped at 1 mL/min, with a gradient from 0 to 30% B in 5 min, 100% B for 4 min to wash the column, and a re-equilibration wash with A for 4 min. The retention time of the product was 3.6 min. Detection with a Shimadzu model RF535 fluorescence monitor was at 330 nm (excitation) and 430 nm (emission). The Ki was calculated from the formula Ki=I/(((Km+S-FA*S)/(FA*Km))-1) where I=inhibitor concentration, S=substrate concentration, FA=fractional activity=cm peak height with inhibitor/cm peak height without inhibitor and Km=Michaelis constant=20 uM.

HIV (3B) or HIV (RF) = test: HIV yield reduction cell assay (plaque assay, MT-2 cells); format: cell-based; conditions: Human immunodeficiency virus 1, MT2, 72 h, 3 days
Protocol: HIV YIELD REDUCTION CELL ASSAY
The following procedure is additionally described in Smallheer et al. Antiviral Chemistry and Chemotherapy 1993, 4(1), 27.
MT-2, a human T-cell line, was cultured in RPMI medium supplemented with 5% (v/v) heat inactivated fetal calf serum (FCS), 2 mM L-glutamine and 50 μg/mL gentamycin (later two compounds available from Gibco) Human immunodeficiency virus strains, HIV (3B) and HIV (RF) were propagated in H-9 cells in RPMI with 5% FCS. Poly-L-lysine (Sigma) coated cell culture plates were prepared according to the method of Harada et al. Science 1985, 229 563. MTT, (3-(4,5-dimethyl-thiazol-2-yl)-2,5-diphenyltetrazolium bromide), was obtained from Sigma.
Method: Test compounds were dissolved in dimethylsulfoxide to 5 mg/mL and serially diluted into RPMI medium to ten times the desired final concentration. […]
The virus titers of the progeny virus produced in the presence or absence of test compounds were determined by plaque assay. […] Clear plaques on a purple background were counted and the number of plaque forming units of virus was calculated for each sample. The antiviral activity of test compounds was determined by the percent reduction in the virus titer with respect to virus grown in the absence of inhibitor. The IC90 values in TABLE 2 were determined using the assay conditions described above under HIV Yield Reduction Assay. […]

[1] = Human immunodeficiency virus 1, MT2, 72 h, HIV RNA assay, HIV-1 (RF) infected MT-2 cells, 3 days, 37° C., read-out: IC90

SMILES: O=P12O[C@H]([C@@H](O)[C@@H](Cc3ccccc3)N1CC1CC1)[C@@H](Cc1ccccc1)N2CC1CC1 [Example 1F, (3-endo,4-endo,6-exo)-2,7-Bis(cyclopropylmethyl)-3,6-bis(phenylmethyl)-8-oxa-2,7-diaza-1-phosphabicyclo [3.2.1]octan-4-ol 1-oxide]
- IC90 (HIV-1 (RF); [1]): 10 to 100 µg/mL (≈ 22.1 to 221 µM)
- Ki (HIV-1 protease): 10 to 1000 nM

SMILES: O=P12O[C@H]([C@@H](O)[C@@H](Cc3ccccc3)N1Cc1ccc(O)cc1)[C@@H](Cc1ccccc1)N2Cc1ccc(O)cc1 [Example 7D, (3-endo,4-endo,6-exo)-2,7-bis(4-hydroxyphenylmethyl)-3,6-bis(phenylmethyl)-8-oxa-2,7-diaza-1-phosphabicyclo[3.2.1]octan-4-ol 1-oxide]
- IC90 (HIV-1 (RF); [1]): < 10 µg/mL
- Ki (HIV-1 protease): < 10 nM

SMILES: Nc1ccn([C@H]2CC[C@@H](CO)O2)c(=O)n1 [ddC, dideoxycytidine, reference compound]
- IC90 (HIV-1 (RF); Human immunodeficiency virus 1, MT2, HIV-1 (RF), MT-2 cells, virus dilution selected to give this value, read-out: IC90 value (concentration of compound required to reduce the HIV RNA level by 90%)): 0.2 µg/mL (≈ 0.947 µM)

SMILES: O=P12O[C@H]([C@@H](O)[C@@H](Cc3ccccc3)N1Cc1ccc(CO)cc1)[C@@H](Cc1ccccc1)N2Cc1ccc(CO)cc1 [Example 5C, (3-endo,4-endo,6-exo)-2,7-Bis(4-(hydroxymethyl)phenylmethyl)-3,6-bis(phenylmethyl)-8-oxa-2,7-diaza-1-phosphabicyclo[3.2.1]octan-4-ol 1-oxide]
- IC90 (HIV-1 (RF); [1]): < 10 µg/mL
- Ki (HIV-1 protease): < 10 nM
- IC90 (HIV (3B) or HIV (RF)): < 10 µg/mL

SMILES: CCCCN1[C@H](Cc2ccccc2)[C@H](O)[C@H]2OP1(=O)N(CCCC)[C@@H]2Cc1ccccc1 [Example 3C, (3-endo,4-endo,6-exo)-2,7-Bis(butyl)-3,6-bis(phenylmethyl)-8-oxa-2,7-diaza-1-phosphabicyclo[3.2.1]octan-4-ol 1-oxide]
- IC90 (HIV-1 (RF); [1]): > 50 µg/mL
- Ki (HIV-1 protease): 10 to 1000 nM

SMILES: O=P12O[C@H]([C@@H](O)[C@@H](Cc3ccccc3)N1Cc1cccc(CO)c1)[C@@H](Cc1ccccc1)N2Cc1cccc(CO)c1 [Example 8C, (3-endo,4-endo,6-exo)-2,7-Bis(3-(hydroxymethyl)phenylmethyl)-3,6-bis(phenylmethyl)-8-oxa-2,7-diaza-1-phosphabicyclo[3.2.1]octan-4-ol 1-oxide]
- IC90 (HIV-1 (RF); [1]): < 10 µg/mL
- Ki (HIV-1 protease): < 10 nM

SMILES: O=P12O[C@H]([C@@H](O)[C@@H](Cc3ccccc3)N1Cc1ccccc1)[C@@H](Cc1ccccc1)N2Cc1ccccc1 [Example 4E, (3-endo,4-endo,6-exo)-2,3,6,7-tetrakis (phenylmethyl)-8-oxa-2,7-diaza-1-phosphabicyclo[3.2.1]octan-4-ol 1-oxide]
- IC90 (HIV-1 (RF); [1]): 10 to 100 µg/mL (≈ 19.1 to 191 µM)
- Ki (HIV-1 protease): 10 to 1000 nM

SMILES: O=P12O[C@H]([C@@H](O)[C@@H](Cc3ccccc3)N1Cc1ccc3ccccc3c1)[C@@H](Cc1ccccc1)N2Cc1ccc2ccccc2c1 [Example 2C, (3-endo,4-endo,6-exo)-2,7-Bis(2-naphthalenylmethyl)-3,6-bis(phenylmethyl)-8-oxa-2,7-diaza-1-phosphabicyclo[3.2.1]octan-4-ol 1-oxide]
- IC90 (HIV-1 (RF); [1]): > 50 µg/mL
- Ki (HIV-1 protease): 10 to 1000 nM

SMILES: CNc1cccc(CN2[C@H](Cc3ccccc3)[C@H](O)[C@H]3OP2(=O)N(Cc2cccc(NC)c2)[C@@H]3Cc2ccccc2)c1 [Example 6D]
- IC90 (HIV-1 (RF); [1]): < 10 µg/mL
- Ki (HIV-1 protease): 10 to 1000 nM
